# Patent US11459339B2, “Biaryl derivative, preparation method thereof and pharmaceutical application thereof” (Abbisko Therapeutics Co., Ltd., priority 2018, dated 2022)
# Like-named read-outs stand apart in the source and are kept apart here.
# Columns and labels:
# [1] = molecular target: interaction between PD-1 and PD-L1 expressed on cell surfaces (Homo sapiens (Human), UniProt Q9NZQ7); test: Jurkat reporter gene cellular assay (Jurkat/NF-κB-luc/PD1 cells cocultured with Raji-PD-L1 cells, OKT-3 stimulation); assay type: cell-based
# interaction between PD-1 and PD-L1 expressed on cell surfaces, sequence (Q9NZQ7 19-290): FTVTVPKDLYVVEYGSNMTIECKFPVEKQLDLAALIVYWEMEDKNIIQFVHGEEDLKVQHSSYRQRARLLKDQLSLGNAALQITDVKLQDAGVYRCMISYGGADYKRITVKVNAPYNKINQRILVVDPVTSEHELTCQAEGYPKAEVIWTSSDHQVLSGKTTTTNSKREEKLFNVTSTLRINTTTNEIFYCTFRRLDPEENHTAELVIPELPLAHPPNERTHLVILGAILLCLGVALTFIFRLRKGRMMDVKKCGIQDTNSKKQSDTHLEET
# Method in brief: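 Jurkat cells stably expressing human PD-1 and NF-κB-luciferase were cocultured with Raji cells stably expressing human PD-L1 under OKT-3 stimulation, with compound present. Luminescence was read after 6 h.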
# [2] = molecular target: interaction between PD-1 and PD-L1 (Homo sapiens (Human), UniProt Q9NZQ7); test: PD1-PDL1 HTRF binding activity test (Cisbio PD-1/PD-L1 binding assay kit)
# interaction between PD-1 and PD-L1, sequence (Q9NZQ7 19-238): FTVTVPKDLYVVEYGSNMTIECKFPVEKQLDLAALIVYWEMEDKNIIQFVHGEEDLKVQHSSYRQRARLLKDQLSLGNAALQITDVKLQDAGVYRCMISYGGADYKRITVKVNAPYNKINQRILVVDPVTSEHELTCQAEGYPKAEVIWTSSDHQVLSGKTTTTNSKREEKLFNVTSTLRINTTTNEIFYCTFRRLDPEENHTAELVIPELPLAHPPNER
# [3] = Pharmacokinetic assay in mice, per oral administration; assay type: in vivo; settings: ICR mice
# Text: C. Pharmacokinetic Assay in Mice
# The purpose of this study was to study the pharmacokinetic behaviors of some compounds of the present invention, and administration routes were: per oral administration (PO) to ICR mice:
# The compounds used in this test came from the compounds of the specific examples of the present invention.
# ICR mice male N=3 original source: Shanghai Sippr-BK Laboratory Animal Co. Ltd.
# 2.3 Preparation and Administration of Medicaments
# The compounds were weighed, and dissolved in solvent of 0.5% SDS+0.5% CMCNa. The mixture solutions were mixed well by shaking and ultrasonic treatment to obtain colorless clear solutions. The solutions were orally administered to nine mice after an overnight fast. The dosage of administration was 10 mg/kg (or 30 mg/kg).
# With about 90 μL/time point, blood was drawn from the submaxillary vein, and heparin sodium was added for anticoagulation. The blood samples were placed onto the ice, and were centrifuged (centrifugation conditions: 8000 r/min, 6 min, 2-8° C.) within 1 hr to obtain plasmas. The time points for blood sampling were at 0 hr, 0.25 hr, 0.5 hr, 1 hr, 2 hrs, 4 hrs, 6 hrs, 8 hrs and 24 hrs after administration. The samples were stored in a refrigerator at −20° C.
# 40 μL of plasma sample was added to 160 μL of cold acetonitrile containing an internal standard, and the mixture solution was vortexed for 3 min and centrifuged at 11,000 r/min for 5 min. 100 μL of supernate was taken and added to 100 μL of water, and 5 μL of the sample was taken and analyzed by LC/MS/MS. Only the original compounds were analyzed for examples 1, 3, 5, 8, 46 and 141 (for results, see table 2); and both the original compounds and possible products of ester hydrolysis, namely example 2, 27, 65 and 105, were analyzed for examples 4, 26, 64 and 104 (for results, see table 3).
# [4] = male, mouse, plasma, PO 10 mg/kg, original compound analyzed
# [5] = male, mouse, plasma, PO 10 mg/kg, original compound analyzed, class symbol
# [6] = male, mouse, PO 10 mg/kg, plasma, original compound analyzed, class symbol, read-out: Cmax
# [7] = NF-κB-luc reporter activation fold, 6 hrs, read-out: Cell Activity EC50
# [8] = read-out: PD1-PDL1 HTRF Binding Activity IC50
# [9] = product of ester hydrolysis analyzed after PO 30 mg/kg of the ester (2 after 4, 27 after 26, 65 after 64)
# [10] = male, mouse, plasma, PO 30 mg/kg, original compound (ester) analyzed
Compound,"MRT [3, 4] [h]","Tmax [3, 4] [h]","half-life [3, 4] [h]","AUC(0-t) [3, 5] [ng·h/mL]","Cmax [3, 6] [ng/mL]","EC50 [1, 7] [nM]","IC50 [2, 8] [nM]",also measured
"Cc1c(NC(=O)c2ccc(CNCCO)cn2)cccc1-c1cccc(NC(=O)c2ccc(CNCCO)cn2)c1C [Example 1, N,N′-(2,2′-dimethyl-[1,1′-biphenyl]-3,3′-diyl)bis(5-(((2-hydroxyethyl)amino)methyl)picolinamide)]",3.3,1,2.4,≤ 500,≤ 100,,,EC50 [1]: 137 nM; IC50 [2]: 0.17 nM
"COc1cc(C(=O)Nc2cccc(-c3cccc(NC(=O)c4cc(OC)c(CNCCO)cn4)c3C)c2C)ncc1CNCCO [Example 3, N,N′-(2,2′-dimethyl-[1,1′-biphenyl]-3,3′-diyl)bis(5-(((2-hydroxyethyl)amino)methyl)-4-methoxypicolinamide)]",16.7,0.5,12.9,> 2000,100 to 500,37,0.2,
"COC(=O)[C@@H](CO)NCc1cnc(C(=O)Nc2cccc(-c3cccc(NC(=O)c4cc(OC)c(CN[C@H](CO)C(=O)OC)cn4)c3C)c2C)cc1OC [Example 4, dimethyl 2,2′-((((((2,2′-dimethyl-[1,1′-biphenyl]-3,3′-diyl)bis(azanediyl))bis(carbonyl))bis(4-methoxypyridine-6,3-diyl))bis(methylene))bis(azanediyl))(2R,2′R)-bis(3-hydroxypropanoate)]",,,,,,1340,0.064,"Cmax ([3]; PO 30 mg/kg, original compound (ester) analyzed): BQL; ester hydrolysis in the bodies of the mice after oral administration [3]: rapidly became corresponding acids"
"Cc1cc(C(=O)Nc2cccc(-c3cccc(NC(=O)c4cc(C)c(CNCCO)cn4)c3C)c2C)ncc1CNCCO [Example 5, N,N′-(2,2′-dimethyl-[1,1′-biphenyl]-3,3′-diyl)bis(5-(((2-hydroxyethyl)amino)methyl)-4-methylpicolinamide)]",10.2,2,8.3,,100 to 500,64,0.36,"AUC(0-t) [3, 4]: 1680 ng·h/mL"
"Cc1cc(C(=O)Nc2cccc(-c3cccc(NC(=O)c4cc(C)c(CNC(CO)CO)cn4)c3C)c2C)ncc1CNC(CO)CO [Example 8, N,N′-(2,2′-dimethyl-[1,1′-biphenyl]-3,3′-diy)bis(5-(((1,3-dihydroxypropan-2-yl)amino)methyl)-4-methylpicolinamide)]",5.4,2,3,500 to 2000,,186,0.41,"Cmax ([3]; male, mouse, PO 10 mg/kg, plasma, original compound analyzed, read-out: Cmax): 319 ng/mL"
"Cc1cc(C(=O)Nc2cccc(-c3cccc(NC(=O)c4cc(C)c(CN5CCCC[C@H]5C(=O)O)cn4)c3C)c2C)ncc1CN1CCCC[C@H]1C(=O)O [Example 27, (2S,2′S)-1,1′-(((((2,2′-dimethyl-[1,1′-biphenyl]-3,3′-diyl)bis(azanediyl))bis(carbonyl))bis(4-methylpyridine-6,3-diyl))bis (methylene))bis(piperidine-2-carboxylic acid)]",,,,,,128,0.28,"Cmax [3, 9]: BQL"
"COc1cc(C(=O)Nc2cccc(-c3cccc(NC(=O)c4cc(OC)c(CN5CC(C)(O)C5)cn4)c3C)c2C)ncc1CN1CC(C)(O)C1 [Example 46, N,N'-(2,2′-dimethyl-[1,1′-biphenyl]-3,3′-diyl)bis(5-((3-hydroxy-3-methylazetidin-1-yl)methyl)-4-methoxypicolinamide)]",15.5,4,10.7,500 to 2000,≤ 100,64,0.25,
COC(=O)[C@@H]1CCCCN1Cc1cnc(C(=O)Nc2cccc(-c3cccc(NC(=O)c4cc(OC)c(CN5CCCC[C@H]5C(=O)OC)cn4)c3C)c2C)cc1OC [Example 64],,,,,,1860,10.7,"MRT [3, 10]: 4.6 h; Tmax [3, 10]: 2 h; half-life [3, 10]: 3.7 h; AUC(0-t) ([3]; male, mouse, plasma, PO 30 mg/kg, original compound (ester) analyzed, class symbol): > 2000 ng·h/mL; Cmax ([3]; male, mouse, plasma, PO 30 mg/kg, original compound (ester) analyzed, class symbol, read-out: Cmax): > 500 ng/mL; ester hydrolysis in the bodies of the mice after oral administration [3]: no product of ester hydrolysis was detected"
"COc1cc(C(=O)Nc2cccc(-c3cccc(NC(=O)c4cc(OC)c(CN5CCCC[C@H]5C(=O)O)cn4)c3C)c2C)ncc1CN1CCCC[C@H]1C(=O)O [Example 65, (2S,2S)-1,1′-(((((2,2′-dimethyl-[1,1′-bipheny]-3,3′-diyl)bis(azanediyl))bis(carbonyl))bis(4-methoxypyridine-6,3-diyl))bis(methylene))bis(piperidine-2-carboxylic acid)]",,,,,,132,0.12,"Cmax [3, 9]: BQL"
COC(=O)[C@@H](CO)NCc1cnc(C(=O)Nc2cccc(-c3cccc(NC(=O)c4cc(C5CC5)c(CN[C@H](CO)C(=O)OC)cn4)c3C)c2C)cc1C1CC1 [Example 104],,,,,,296,1.57,"Cmax ([3]; Table 3, PO 10 mpk, original compound (ester 104) analyzed): BQL; ester hydrolysis in the bodies of the mice after oral administration [3]: rapidly became corresponding acids"
"COc1cc(C(=O)Nc2cccc(-c3cccc(NC(=O)c4cc(OC)c(CNCCO)cn4)c3Cl)c2C)ncc1CNCCO [Example 141, N,N′-(2-chloro-2′-methyl-[1,1′-biphenyl]-3,3′-diyl)bis(5-(((2-hydroxyethyl)amino)methyl)-4-methoxypicolinamide)]",,,,,,74,0.75,"Cmax ([3]; PO 10 mg/kg, plasma, original compound analyzed): BQL"
